Measured values taken from patent US20160222014A1, “COMPOUNDS FOR REGULATING FAK AND/OR SRC PATHWAYS” (ASANA BIOSCIENCES, LLC, priority 2013, published 2016).

Key:
Format in all cases: biochemical
Recombinant Src enzyme = molecular target: T1, Recombinant Src enzyme (Homo sapiens, UniProt P12931); assay: Src HTRF assay
T1 construct: purchased Millipore 14-326; host or cells: Sf21 insect cells
Method: Enzyme assay buffer, supplements, and compounds were prepared as described in the FAK HTRF assay.
Recombinant Src enzyme expressed in Sf21 insect cells was obtained (Millipore, Cat No. 14-326, Lot # D8CN006U-K). A 35 μM stock was used at a final concentration of 5 nM in the assay.
Tyk2 synthetic peptide-Biotinylated-N-terminal tag-[…]
A custom made substrate, a Tyk2 synthetic peptide, biotinylated with an N-terminal tag was obtained (Biopeptide and Sigma, Cat. No. 14918001 VC80021). A 100 μM stock was used at a final concentration of 0.5 μM in the assay.
A 10 mM stock in 100 μL enzyme assay buffer pH7.4 was prepared freshly and used at a final concentration of 10 μM in the assay.
Dasatinib (Bristol-Myers Squibb)
The assay procedure was the same as discussed above.

recombinant human FAK1 = molecular target: T2, recombinant human FAK1 (Homo sapiens, UniProt Q05397); assay: FAK1 HTRF assay
T2 construct: fused on or other part: N-terminal 6xHis tag
How it was run: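 IC50 values derive from HTRF % inhibition (ratio 665/620 nm, Eu–anti-phosphotyrosine 0.1 nM, SA-APC 12 nM). The kinase step ran 45 min at room temperature, pairing 10 nM His-FAK1(692–end) from baculovirus with 0.5 μM gastrin Tyr87 biotin-peptide and a reagent at 10 μM final, pH 7.4. Compound dilutions began at 10 μM.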

AURKB (Aurora B) enzyme = molecular target: T3, AURKB (Aurora B) enzyme (Homo sapiens, UniProt Q96GD4); assay: Aurora B HTRF assay; conditions: read-out: AuroraB IC50
T3 construct: purchased Invitrogen PVR 130
Method: AURKB (Aurora B) enzyme was obtained (Invitrogen, Cat No. PVR 130, Lot No. 857013J). A 8.64 μM stock was used at a final concentration 5 nM in the assay.
Lance@Ultera Ulight-PLK (Ser137) peptide substrate
Peptide substrate was obtained from Perkin Elmer (Lot#1629793, TRF0110-M). A 5 μM stock was used at a final concentration of 50 nM in the assay.
10 mM stock prepared freshly as above, used at a final concentration of 30 μM in assay.
The plate was covered with aluminum foil, put on a shaker and incubated 1 h at rt.
Reference: Pfizer aurora inhibitor PF-03814735 was procured from Selleckchem: Cat# S2725
Using stock Lance detection buffer, 1× Lance detection buffer was prepared. • 1. 10× lance detection buffer was diluted to 1×, mixed well and 100 μL was removed, and was used to substitute with antibody and EDTA (for a total of 2200 μL). • 2. 88 μL of […] EDTA was added from 500 mM stock. • 3. 14 μL Europium labeled antibody (LANCE@ Ultra EU-Anti-P-PLK(Ser 137), TRF0203-D, Lot No. 1630351, Perkin Elmer) was added from 625 nM stock; required concentration was 2 nM in the assay. • 4. The buffer well was mixed and 20 μL was transferred to the each well in the assay plate. • 5. The solutions were incubated for 1 h at rt. • 6. The plate was read using MET-HTRF® protocol using Pherastar equipment.

T3 sequence (Q96GD4 whole entry): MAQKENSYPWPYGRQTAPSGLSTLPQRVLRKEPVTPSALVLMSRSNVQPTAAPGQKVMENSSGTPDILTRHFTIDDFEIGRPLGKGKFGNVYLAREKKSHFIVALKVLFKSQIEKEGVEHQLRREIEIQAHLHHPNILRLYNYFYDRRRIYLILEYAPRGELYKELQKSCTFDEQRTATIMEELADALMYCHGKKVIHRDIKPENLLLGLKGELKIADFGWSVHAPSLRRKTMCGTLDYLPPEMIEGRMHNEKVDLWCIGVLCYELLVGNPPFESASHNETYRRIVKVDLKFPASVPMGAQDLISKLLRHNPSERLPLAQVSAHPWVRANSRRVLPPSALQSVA
T1 sequence (P12931 whole entry): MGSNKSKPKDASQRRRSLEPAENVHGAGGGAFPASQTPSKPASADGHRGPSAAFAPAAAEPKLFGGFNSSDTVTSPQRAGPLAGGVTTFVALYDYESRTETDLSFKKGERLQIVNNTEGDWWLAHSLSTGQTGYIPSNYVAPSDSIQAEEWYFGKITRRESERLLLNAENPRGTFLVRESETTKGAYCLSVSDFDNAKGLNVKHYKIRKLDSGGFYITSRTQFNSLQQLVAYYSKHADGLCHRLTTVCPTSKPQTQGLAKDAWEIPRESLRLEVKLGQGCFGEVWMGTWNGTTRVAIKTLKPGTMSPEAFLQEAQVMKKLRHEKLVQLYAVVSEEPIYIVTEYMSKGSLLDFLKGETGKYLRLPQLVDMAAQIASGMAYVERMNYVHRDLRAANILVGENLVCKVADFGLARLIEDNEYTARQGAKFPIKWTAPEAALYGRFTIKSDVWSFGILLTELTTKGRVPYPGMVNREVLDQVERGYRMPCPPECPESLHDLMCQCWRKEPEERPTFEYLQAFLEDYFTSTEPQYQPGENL
T2 sequence (Q05397 422-680 limits assumed): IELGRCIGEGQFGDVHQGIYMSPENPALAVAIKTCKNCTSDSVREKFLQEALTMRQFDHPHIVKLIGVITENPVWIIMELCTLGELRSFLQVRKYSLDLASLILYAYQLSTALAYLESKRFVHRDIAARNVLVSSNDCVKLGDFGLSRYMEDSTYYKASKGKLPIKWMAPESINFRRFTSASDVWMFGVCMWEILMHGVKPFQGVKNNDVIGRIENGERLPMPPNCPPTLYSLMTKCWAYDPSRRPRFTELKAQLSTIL

Row | Compound | IC50 (Recombinant Src enzyme) [nM] | IC50 (recombinant human FAK1) [nM] | IC50 (AURKB (Aurora B) enzyme) [nM]
1 | CC(=O)Nc1cccc(Nc2ncc3ccn(S(=O)(=O)c4ccc(C)cc4)c3n2)c1 [Example 39] | > 1000 | – | –
2 | CC(=O)Nc1cccc(Nc2ncc3ccn(S(=O)(=O)c4cccc(OC(F)(F)F)c4)c3n2)c1 [Example 40] | > 1000 | – | –
3 | O=C1CCc2cc(Nc3cc4c(ccn4S(=O)(=O)c4cccc(OC(F)(F)F)c4)cn3)ccc2N1 [Example 56] | > 1000 | – | –
4 | CC(=O)Nc1ccc(Nc2cc3c(ccn3Cc3ccccc3OC(F)F)cn2)cc1 [Example 97] | > 1000 | – | –
5 | CC(=O)Nc1cccc(Nc2cc3c(ccn3Cc3ccccc3OC(F)F)cn2)c1 [Example 98] | > 1000 | – | –
6 | COc1ccccc1S(=O)(=O)n1ccc2cnc(Nc3cccc(NC(C)=O)c3)nc21 [Example 104] | > 1000 | – | –
7 | CC(C)(O)C(=O)Nc1cccc(Nc2ncc3ccn(S(=O)(=O)c4ccccc4OC(F)(F)F)c3n2)c1 [Example 110] | > 1000 | – | –
8 | O=S(=O)(c1ccccc1OC(F)(F)F)n1ccc2cnc(Nc3ccc(N4CCOCC4)cc3)nc21 [Example 112] | > 1000 | – | –
9 | COc1ccccc1S(=O)(=O)n1ncc2cnc(Nc3ccc4c(c3)CCC(=O)N4)cc21 [Example 130] | > 1000 | – | –
10 | COc1ccccc1S(=O)(=O)n1ncc2cnc(Nc3ccc4ncsc4c3)cc21 [Example 132] | > 1000 | – | –
11 | CN(c1ncccc1Cn1ccc2cnc(Nc3ccncc3)nc21)S(C)(=O)=O [Example 138] | > 1000 | – | –
12 | CN(c1cccc(Cn2ccc3cnc(Nc4ccc5c(c4)CCC(=O)N5)nc32)n1)S(C)(=O)=O [Example 141] | > 1000 | – | –
13 | COc1ccccc1S(=O)(=O)n1ccc2cnc(Nc3cccnc3)nc21 [Example 143] | > 1000 | – | –
14 | COc1ccccc1S(=O)(=O)n1ccc2cnc(Nc3ccncc3)nc21 [Example 144] | > 1000 | – | –
15 | Cc1ccccc1Nc1ncc2ccn(Cc3cccnc3N(C)S(C)(=O)=O)c2n1 [Example 148] | > 1000 | – | –
16 | CN(c1ncccc1Cn1ccc2cnc(Nc3ccccc3F)nc21)S(C)(=O)=O [Example 155] | > 1000 | – | –
17 | CN(c1ncccc1Cn1ccc2cnc(Nc3c(F)cccc3F)nc21)S(C)(=O)=O [Example 167] | > 1000 | – | –
18 | CN(c1ncccc1Cn1ccc2cnc(Nc3cccc(-c4nnn[nH]4)c3)nc21)S(C)(=O)=O [Example 188] | > 1000 | – | –
19 | CC(=O)Nc1ccc(S(=O)(=O)n2ccc3cnc(Nc4ccc5c(c4)CCC(=O)N5)nc32)cc1 [Example 192] | > 1000 | – | –
20 | O=C1CCc2cc(Nc3ncc4ccn(S(=O)(=O)c5ccc6ncsc6c5)c4n3)ccc2N1 [Example 226] | > 1000 | – | –
21 | O=S(=O)(c1ccc2ncsc2c1)n1ccc2cnc(Nc3ccc(N4CCNCC4)cc3)nc21 [Example 234] | > 1000 | – | –
22 | CN(c1ncccc1Cn1ncc2cnc(Nc3ccc(N4CCNCC4)cc3)nc21)S(C)(=O)=O [Example 241] | < 20 | – | –
23 | O=C1Cc2cc(Nc3cc4c(cn3)cnn4S(=O)(=O)c3cccc4cccnc34)ccc2N1 [Example 354] | > 1000 | – | –
24 | O=S(=O)(c1cccc2cccnc12)n1ccc2cnc(Nc3ccc(N4CCNCC4)cc3CO)cc21 [Example 361] | > 1000 | – | –
25 | O=S(=O)(c1cccc2cccnc12)n1ccc2cnc(Nc3ccc(N4CCNCC4)cc3CO)nc21 [Example 363] | > 1000 | – | –
26 | COc1cc(Nc2cc3c(ccn3Cc3cccnc3N(C)S(C)(=O)=O)cn2)ccc1N1CCNCC1 [Example 364] | > 1000 | – | –
27 | COc1c(Nc2ncc3ccn(S(=O)(=O)c4cccc5cccnc45)c3n2)ccc(N2CCNCC2)c1F [Example 370] | > 1000 | – | –

Row | Compound | IC50 (Recombinant Src enzyme) [nM] | IC50 (recombinant human FAK1) [nM] | IC50 (AURKB (Aurora B) enzyme) [nM]
28 | O=C(Nc1ccc(Nc2cc3c(cn2)cnn3S(=O)(=O)c2cccc3cccnc23)cc1)C1CC1 [Example 375] | > 1000 | – | –
29 | COc1cc(N2CCNCC2)ccc1Nc1cc2c(ccn2S(=O)(=O)c2cccc3ccc(C)nc23)cn1 [Example 382] | > 1000 | – | –
30 | CN1CC2CC1CN2c1ccc(Nc2ncc3ccn(S(=O)(=O)c4cccc5cccnc45)c3n2)cc1 (stereo not shown) [Example 410] | – | < 20 | < 20
31 | N#Cc1ccccc1S(=O)(=O)n1ccc2cnc(Nc3ccc(N4CCN(CCO)CC4)cc3)cc21 [Example 413] | – | < 20 | < 20
32 | CN(c1ccccc1Cn1ccc2cnc(Nc3ccc(N4CCN(CCO)CC4)cc3)nc21)S(C)(=O)=O [Example 423] | – | < 20 | < 20
33 | COc1cc(Nc2ncc3ccn(S(=O)(=O)c4cccc5cccnc45)c3n2)ccc1N1CCN(C)CC1 [Example 427] | – | < 20 | < 20
34 | CN1CCN(c2ccc(Nc3ncc4ccn(Cc5ccccc5N(C)S(C)(=O)=O)c4n3)cc2)CC1 [Example 428] | – | < 20 | < 20
35 | COc1cc(Nc2ncc3ccn(S(=O)(=O)c4cccc5cccnc45)c3n2)ccc1N1CCN(CCO)CC1 [Example 431] | – | < 20 | < 20
36 | O=S(=O)(c1cccc2cccnc12)n1ccc2cnc(Nc3ccc(N4CCC(CO)CC4)cc3)nc21 [Example 440] | – | < 20 | < 20
37 | CN(C)C1CCN(c2ccc(Nc3ncc4ccn(S(=O)(=O)c5cccc6cccnc56)c4n3)cc2)CC1 [Example 462] | – | < 20 | < 20
38 | C[C@H]1CN(c2ccc(Nc3cc4c(ccn4S(=O)(=O)c4ccccc4C#N)cn3)cc2)CCN1 [Example 472] | – | < 20 | < 20
39 | C[C@H]1CNCCN1c1ccc(Nc2cc3c(ccn3S(=O)(=O)c3cccc4cccnc34)cn2)cc1 [Example 478] | – | < 20 | < 20
40 | C[C@@H]1CNCCN1c1ccc(Nc2cc3c(ccn3S(=O)(=O)c3cccc4cccnc34)cn2)cc1 [Example 480] | – | < 20 | < 20
41 | CN(C)C1CCN(c2ccc(Nc3cc4c(ccn4S(=O)(=O)c4ccccc4C#N)cn3)cc2)CC1 [Example 485] | – | < 20 | < 20
42 | C[C@@H]1CNCCN1c1ccc(Nc2ncc3ccn(S(=O)(=O)c4cccc5cccnc45)c3n2)cc1 [Example 490] | – | < 20 | < 20
43 | CC1(C)CN(S(=O)(=O)c2cccc3cccnc23)c2nc(Nc3ccc4c(c3)CCC(=O)N4)ncc21 [Example 545] | – | < 20 | < 20
44 | CS(=O)(=O)Nc1ccccc1Cn1ccc2cnc(Nc3ccc4c(c3)CCC(=O)N4)nc21 [Example 595] | – | < 20 | < 20
45 | CN(c1ccccc1Cn1ccc2cnc(Nc3ccc(N4CCNC(C)(C)C4)cc3)nc21)S(C)(=O)=O [Example 606] | – | < 20 | < 20
46 | CS(=O)(=O)Nc1ccccc1Cn1ccc2cnc(Nc3ccc4c(c3)OCC(=O)N4)nc21 [Example 618] | – | < 20 | < 20
47 | C[C@H](O)CN1CCN(c2ccc(Nc3ncc4ccn(Cc5ccccc5N(C)S(C)(=O)=O)c4n3)cc2)CC1 [Example 632] | – | < 20 | < 20
48 | CN(c1ccccc1Cn1ccc2cnc(Nc3ccc(N4CCN(CC(=O)O)CC4)cc3)nc21)S(C)(=O)=O [Example 662] | – | < 20 | < 20
49 | C[C@@H](O)CN1CCN(c2ccc(Nc3ncc4ccn(Cc5ccccc5N(C)S(C)(=O)=O)c4n3)cc2)CC1 [Example 665] | – | < 20 | < 20
50 | COc1ccc(N(C)S(C)(=O)=O)c(Cn2ccc3cnc(Nc4ccc(N5CCN[C@@H](C)C5)cc4)nc32)c1 [Example 675] | – | < 20 | < 20
51 | COc1ccc(N(C)S(C)(=O)=O)c(Cn2ccc3cnc(Nc4ccc5c(c4)CC(=O)N5)nc32)c1 [Example 691] | – | < 20 | < 20
52 | C[C@H](O)CN1CCN(c2ccc(Nc3ncc4ccn(Cc5ccccc5N(C)S(C)(=O)=O)c4n3)cc2)C[C@@H]1C [Example 695, N-(2-((2-((4-((S)-4-((S)-2-hydroxypropyl)-3-methylpiperazin-1-yl)phenyl)amino)-7H-pyrrolo[2,3-d]pyrimidin-7-yl)methyl)phenyl)-N-methylmethanesulfonamide] | – | < 20 | < 20
53 | CN1CCC(NC(=O)c2ccc(Nc3ncc4ccn(Cc5ccccc5N(C)S(C)(=O)=O)c4n3)cc2)CC1 [Example 777] | – | < 20 | < 20
54 | Cc1ccc(N(C)S(C)(=O)=O)c(Cn2ccc3cnc(Nc4ccc(N5CCC(N(C)C)CC5)c(C)c4)nc32)c1 [Example 780] | – | < 20 | < 20
